Results as given in patent US20140018288A1, “X-DING-CD4 Peptide” (priority 2012, published 2014).

B1: X-DING-CD4: native form of X-DING-CD4 protein purified from the extracellular compartment of HIV-1 resistant T-cells, about 40 kDa (protein, listed as Homo sapiens)
chain: MADINGGGATLPQPLYQTSGVLTAGFAPYIGVGSGKGKLAFLNNDYSQFGTGTKNVHWAGSDSKLTSTELSTYASTKQAAWGKLIQVPSVATSVAIPFNKAGSNAVDLSVDQLCGVFSGRITTWNQLPATGRTGNIVVVYRNEASGTTELFTRFLTAKCVNESKKFVVTTNFADSFGVPAGAVPAVTSQGVMTKLNAGDGRITYMSPDYAAPTLAGLDDATKVAKVAGVSPAPDNVSAAIAAVPVPAAANVALQNAWVPVFAAAADANDPSVVPYPSTGFPILGFTNLIFSQ

Experiments:
[1] = system: cellular uptake of X-DING-CD4 protein; test: Cellular uptake of X-DING-CD4 protein tested by RSA in 1G5 cells treated with uptake inhibitors; assay type: cell-based
Experimental: Cellular uptake of X-DING-CD4 protein was tested by RSA in 1G5 cells treated with chemicals affecting: (i) clatrin mediated endocytosis—[…] (CPZ); (ii) endocytosis—cytochalasin D (CCD) and chloroquine (CQ) or (iii) macropinocytosis—dimethyl amiloride (DMA). Untreated group referred to the experimental system where X-DING-CD4 mediated inhibition of transcription was measured without cellular exposure to chemicals.

HIV-1 LTR promoter = test: Rapid Suppression Assay (RSA), PMA-induced HIV-1 LTR-driven luciferase in 1G5 cells; assay type: cell-based; details: for IC50: 1G5 cells, PMA 5 ng/ml, read-out: IC50, HIV-1 LTR promoter inhibition; for IC50, HIV-1 LTR promoter inhibition, mass concentration: Table 1
Description: We applied the cell based Rapid Suppression Assay (RSA) for testing X-DING-CD4-induced inhibition of HIV-1 LTR promoter (Lesner et al., 2004; Lesner et al., 2005). Briefly, 1 G5 cells (obtained through the NIH AIDS Research and Reagent Program, Division of AIDS, NIAID, NIH) that are stably transfected with an inducible luciferase gene driven by HIV-1 LTR (Aguilar-Cordova et al., 1994) were washed in PBS, resuspended in hybridoma medium to concentration of 5×10^6cells/ml. For purpose of generating control titration curves, 100 μl aliquots of 1G5 cells were mixed with 100 μl cell culture medium either supplemented with various amount of rX-DING-CD4^pep (SEQ ID No: 1) or no rX-DING-CD4^pep, and incubated for three hours at 37° C. Subsequently, all cells were induced with phorbol 12-myristate 13-acetate (PMA) at a concentration of 5 ng/ml. Two control tubes containing 1G5 cells without rX-DING-CD4^pep treatment were resuspended in hybridoma medium with or without PMA. Three hours later cells were collected by centrifugation and lysed in the same tubes using Reporter Lysis buffer (Promega). The expression levels of luciferase protein in the lysates were determined according to the manufacturer's protocol. The X-DING-CD4^pep inhibition values were established based on the formula: [(LUC1-LUC0)×100/Z]−100; where LUC1 is the value obtained from cells induced by PMA and treated with a specific dilution of X-DING-CD4^pep; and LUC0 is the basal value obtained from the uninduced and untreated cells; Z is the absolute luciferase induction by PMA calculated as Z=LUCmax-LUCO3 where LUCmax is the value of 100% luciferase expression in PMA induced X-DING-CD4^pep untreated cells.
One aspect of the present invention is related to X-DING-CD4 peptide derivatives. Here we obtained 15 derivatives SED ID NOS: 1-15 by recombination or in vitro synthesis. We tested the biological activity of some these derivatives by rapid suppression assay (RSA). In XD-4M, the third amino acid glycine in the native X-DING-CD4 peptide was substituted with the polar amino acid glutamine. In XD-7, the two amino acids, cysteine and valine, replaced the three amino acids, glycine, serine and aspartic acid, in the native X-DING-CD4 peptide. In XD-12 and XD-12sh, the 69th amino acid glutamic acid in the native X-DING-CD4 peptide was methylated. In XD-9, the 69th amino acid glutamic acid in the native X-DING-CD4 peptide was substituted with the amino acid glutamine. The RSA procedure was similar to that described in Example 2. The inhibitory values are plotted in FIG. 5.
We performed the rapid suppression assay (RSA) which tests directly the inhibition of HIV-1 transcription (similar to the procedure described in Example 2), the MAGI assay which tests the inhibition of HIV-1 replication in a single cycle infection (similar to the procedure described in Example 2), and the HIV-1 infection inhibition assay in human PBLs.

[2] = Acute toxicity after intraperitoneal injection in mice; assay type: in vivo, mice (B6/SJL); details: 1-50 μg rX-DING-CD4^pep or 50 μg nX-DING-CD4, 7 days
Experimental: In the animal tests, eight-week old wild-type mice (B6/SJL) with both genders in each test group were injected intraperitoneally with 1-50 μg of rX-DING-CD4^pep or 50 μg nX-DING-CD4. The nX-DING-CD4 refers to the native form of X-DING-CD4 protein that was purified through IXC chromatography from the extracellular compartment of HIV-1 resistant T-cells. The rX-DING-CD4^pep refers to therapeutic X-DING-CD4 peptide that was expressed in E. coli and purified through Ni-affinity column. Toxicity was assessed by obvious symptoms including diarrhea, ruffled fur, abnormal gait, or loss of more than 10% weight. Animals were weighted before injection and then observed every hour for the first 10 hours after injection; then animals were weighted on 1, 3, 4 and 7 days after X-DING-CD4 administration. […] In its highest administered dose (50 μg—corresponding to 2 μg/G) we exceeded therapeutic dose blocking 95% of HIV promoter activity (by RSA assays) and 90% virus replication (by MAGI assays) (See FIGS. 2 & 3 in Example 2).

NL4-3 HIV-1 isolate [3] = test: HIV-1 infection inhibition assay in human PBLs, intracellular p24 core antigen ELISA; assay type: cell-based; details: 1 μg/ml protein, seven days after infection
Experimental: In addition, we measured the inhibitory activities of these four proteins in HIV-1-infected peripheral blood lymphocytes (PBLs). The cells are treated separately with the proteins and the replication of virus was measured five and seven days later by assessing the intracellular levels of p24 core protein. PBLs were obtained by elutriation from the whole blood of healthy, HIV-1 negative volunteers. Before the experiment, cells were stimulated for 2 days in Dulbecco's modified Eagle medium (DMEM) supplemented with 10% fetal bovine serum (FBS), phytohemaglutinin (PHA, 5 μg/ml; Sigma), interleukin 2 (10 U/ml; R&D Systems), antibiotics and glutamate. Subsequently, cells were cultured without PHA. Briefly, 3×10^6 PBLs/well in a 24-well plate (Costar Scientific) were cultured in 1 ml RPMI medium supplemented with antibiotics, glutamate and 1 μg/ml of each protein, respectively. Six hours after the initial exposure to the protein treatments, the culture medium was supplemented with 3%/Vol FBS. […] Replication of virus was evaluated at five and seven days after infection by Elisa assay of the intracellular HIV-1 p24 core antigen (Perkin Elmer). The viability of cells was assessed by the dye exclusion method (Strober, 2001) at 1, 2, 3, 5 and 7 days after protein treatments.

X-DING-CD4 mRNA = test: Induction of X-DING-CD4 mRNA expression in 1G5 cells (qRT-PCR); assay type: cell-based; details: 6 hours, 200 ng/ml
Experimental: The sX-DING-CD4 may be released from the macropinosome to endoplasmic reticulum (ER) and cause induction of IFNα, which in turn induces the expression of X-DING-CD4 mRNA and endogenous X-DING-CD4 protein (step 2). The induction of X-DING-CD4 mRNA by sX-DING-CD4 was tested in 1G5 cells. Briefly, three groups of 1G5 cells were treated for 6 hours with NL4-3 HIV-1 at MOI of 0.1, 200 ng/ml native X-DING-CD4 protein, and 1-126 rX-DING-CD4 peptide (i.e., rX-DING-CD4^pep), respectively. […] The eX-DING-CD4, derived from the newly synthesized X-DING-CD4, binds CN and is transported into the nucleus where it blocks LTR transcription (steps 2-7).
Two peptide fragments from the N-terminal region of X-DING-CD4 were synthesized and their activities in inducing IFN-α and X-DING-CD4 mRNA expressions were determined by qRT-PCR. The concentration of proteins used in the assays was 200 ng/ml except for the combination of XD-1 and XD-4 where we used 100 ng/ml of each peptide. The 1-126 rX-DING-CD4 and peptide C3 p16 served as positive and negative controls, respectively. The C3 Peptide P16 was derived from the C3d component of serum complement. C3 Peptide P16 regulates B cells, but not T cells, through interacting with the gp140 C3d receptor (CR2).

NL4-3 HIV-1 isolate [4] = test: MAGI assay of HIV-1 replication in MAGI-CCR-5 cells; assay type: cell-based; details: DING family proteins, FIG. 16B
Experimental: The antiviral activity of rX-DING-CD4^pep was tested by MAGI assay. […] Subsequently, cells were exposed to rX-DING-CD4^pep treatment in the presence of DMEM supplemented with 5% fetal bovine serum, antibiotics, glutamate and […] DEAE dextran. […] Replication of virus was evaluated forty eight hours later after fixation of cells with 1% formaldehyde and 0.2% glutaraldehyde in PBS. Expression of β-galactosidase was visualized by 50 min exposure to X-GAL (5-bromo-4-chloro-3-indolyl-β-D-galactopyranoside), 0.4 mg/ml 2 mM MgCl2, 4 mM potassium ferricyanide at 37° C. After enumeration of the infected (blue) cells, all cells were lysed and subjected to the protein assay (Bio-Rad). All data were adjusted by total protein concentration and anti-viral activity was calculated as percent inhibition. The infected untreated and uninfected cells served as (+) and (−) controls to calculate 100% virus infectivity. The inhibition values for HIV-1 replication were calculated based on the formula [(R1−R0)×100/Z]-100; where R1 is the value obtained from cells infected by HIV-1 and treated with specific dilution of X-DING-CD4^pep and R^0 is the basal value obtained from the uninfected and untreated cells; Z is the absolute HIV-1 replication value calculated as Z═Rmax−R0, where Rmax is the value representing 100% of HIV-1 replication in X-DING-CD4^pep untreated cells.

Molecule	IC50 (HIV-1 LTR promoter; RSA) [nM]	IC50, HIV-1 LTR promoter inhibition, mass concentration (HIV-1 LTR promoter; RSA)	other results
C=C1[C@@H](C)[C@H]2[C@H](Cc3ccccc3)NC(=O)[C@]23[C@H](OC(C)=O)/C=C/[C@@](C)(O)C(=O)[C@@H](C)C/C=C/[C@H]3[C@@H]1O [CCD, cytochalasin D]	–	–	effect of uptake inhibitor on sX-DING-CD4 inhibition of LTR transcription [1]: still demonstrated inhibitory effects of sX-DING-CD4 on LTR transcription
CN(C)CCCN1c2ccccc2Sc2ccc(Cl)cc21 [CPZ, Chromopromazine]	–	–	effect of uptake inhibitor on sX-DING-CD4 inhibition of LTR transcription [1]: still demonstrated inhibitory effects of sX-DING-CD4 on LTR transcription
CCN(CC)CCCC(C)Nc1ccnc2cc(Cl)ccc12 (stereo not shown) [CQ, chloroquine]	–	–	effect of uptake inhibitor on sX-DING-CD4 inhibition of LTR transcription [1]: still demonstrated inhibitory effects of sX-DING-CD4 on LTR transcription
CN(C)c1nc(N)c(C(=O)N=C(N)N)nc1Cl [DMA, dimethyl amiloride]	–	–	effect of uptake inhibitor on sX-DING-CD4 inhibition of LTR transcription [1]: abolished the inhibitory effect of sX-DING-CD4 on LTR transcription
DINGGGATLPQK [XD-1]	51.2	(60 ng/ml)	–
DINGGQTLPQK [XD-4M]	57	(66.9 ng/ml)	–
GTKNVHWACVSKLTSTELSTY [XD-7]	29.8	(69.3 ng/ml)	–
GTKNVHWAGSDSKLTSTELSTYC [XD-5]	35.8	(88.7 ng/ml)	–
GVSNKNVHWAGSDSKLTAT [XD-14]	36.8	(72.5 ng/ml)	–
GVSNKNVHWAGSDSKLTATE(OMe)LSTY [XD-12]	33.7	(86.2 ng/ml)	–
GVSNKNVHWAGSDSKLTATLLSTY [XD-15]	36.7	(93.5 ng/ml)	–
GVSNKNVHWAGSDSKLTATQLSTY [XD-13]	30.2	(77.5 ng/ml)	–
KNVHWAGSDSKLTSTELSTY [XD-4]	31	(70 ng/ml)	–
LLSTY [XD-15sh]	157	(93.5 ng/ml)	–
QLSTY [XD-13sh]	121	(74 ng/ml)	–
YTSLE [XD-12sh, YTSLE(OMe)]	121	(74 ng/ml)	–
B1	–	–	obvious symptoms of toxicity (diarrhea, ruffled fur, abnormal gait) [2]: Neither of rX-DING-CD4^pep treatment nor nX-DING-CD4 treatment caused any obvious symptoms; reduction of HIV-1 replication (p24) (NL4-3 HIV-1 isolate [3]): about 11 fold; IC50 RSA (HIV-1 LTR promoter; DING family proteins): 0.052 µg/mL; HIV-1 LTR IC50 (HIV-1 LTR promoter; RSA, DING family proteins, FIG. 16A): 0.052 µg/mL; expression of X-DING-CD4 mRNA (X-DING-CD4 mRNA): induced expression of X-DING-CD4 mRNA; IC50, HIV-1 replication (MAGI) (NL4-3 HIV-1 isolate [4]): 0.075 µg/mL
